Reference: patent US6506784B1, “Use of 1,3-substituted pyrazol-5-yl sulfonates as pesticides” (3-Dimensional Pharmaceuticals, Inc., priority 1999, dated 2003)

Molecular target: Mouse Brain GABA Receptors
Assay: In vitro assay of ability to bind mouse brain GABA receptors (3H-EBOB displacement, mouse brain membranes)
Details: inhibition of 3H-EBOB binding to mouse brain membranes; NI = non-inhibitor
Procedure: Mouse brains were obtained from carbon dioxide-asphyxiated Swiss-Webster mice, washed with phosphate-buffered saline, and used either fresh or after storage at −80° C. for up to 10 months. Unless specified, all preparation steps were performed at 0-4° C. For each preparation, 20 brains were suspended in about 40 mL of 0.32 M sucrose and homogenized for about 2 minutes, using a Tissumizer™ homogenizer equipped with a SDT-100EN probe (available from Tekmar-Dohrmann, Cincinnati, Ohio) running at 50% of its maximum speed. The extract was centrifuged for about 5 min at about 1000×g to pellet intact brain tissue. The supernatant was retained and the pellet washed with an additional 40 mL of 0.32 M sucrose and centrifuged at 1000×g for about 5 minutes. The 1000×g supernatants were combined and centrifuged at about 10,000×g for about 20 min to pellet membranes. The 10,000×g supernatant was discarded and the pellet was resuspended in about 20 mL of water containing 1 mM EDTA. The sample was dialyzed two times for about 3 hours each against about 3 L of water. The sample was then centrifuged at about 25,000×g for about 30 min to pellet the membranes. After centrifugation, the supernatant was discarded and the pellet recovered. The protein concentration of the pellet was determined by the Bio-Rad Protein Assay (available from Bio-Rad Laboratories, Hercules, Calif.) using bovine serum albumin as a standard. The membranes were aliquoted and stored at −80° C. for up to 6 months before use.
Mouse brain membranes were prepared as described above from dissected mouse brains. Test compounds were dissolved in dimethylsulfoxide (DMSO) at concentrations ranging from about 2 nM to about 100 mM. About 1 μL of a dissolved test compound was dispensed into a well of a 96-well polystyrene plate. About 100 μL of ice cold assay buffer (10 mM phosphate, 300 mM NaCl, pH 7.5) containing 5.2 nM 4′-Ethynyl-4-n-[2,3-^3H2]propylbicycloorthobenzoate (^3H-EBOB, 38 Ci/mmol, available from NEN Life Science Products, Boston, Mass.) was added to the well, followed by about 100 μL of ice cold assay buffer containing about 0.25-0.5 mg/ml mouse brain membranes. Control wells were prepared the same way except that the mouse brain membranes were omitted from the “negative” wells, and the test compounds were omitted from the “positive” wells. The samples were incubated for about 45 min at about 24° C. and then filtered on a 0.1% (w/v) polyethylenimine-soaked glass fiber Filtermat A (available from EG&G Wallac Inc., Gaithersburg, Md.) followed by four 100 mL rinses of cold assay buffer using a Harvester 96® cell harvester (available from Tomtec, Orange, Conn.). The filtermat was air dried and radioactivity bound to the filtermat was detected with either a 1450 MicroBeta® Trilux scintillation counter (available from EG&G Wallac Inc.) or a Topcount NXT™ scintillation counter (available from Packard Instrument Co., Meriden, Conn.) using standard methods.
Specific binding was considered to be the difference between total ^3H bound to the mouse brain membranes in the absence of any inhibitors and nonspecific ^3H bound to the mouse brain membranes upon the addition of 5 μM unlabeled EBOB. The average radioactivity contained in the “negative” wells was subtracted from each of the assay wells. […] This value was calculated by plotting the data on a log-linear plot and either dropping a line to the x-axis perpendicular to a line drawn to the y-axis at approximately 50% inhibition of ^3H-EBOB binding, or by fitting the data to the formula I=XY/(X+Z), in which I is the percent inhibition of ^3H-EBOB binding, X is the inhibitor concentration, Y is the maximum percent inhibition of ^3H-EBOB binding observed, and Z is the calculated IC50.

| Compound | IC50 |
| --- | --- |
| Cn1nc(C(F)(F)F)cc1OS(=O)(=O)c1cc(Cl)c(Cl)cc1Cl [compound 1] | 8.4 µM |
| Cn1nc(C(F)(F)F)cc1OS(=O)(=O)c1ccc(Cl)c(Cl)c1 [compound 2] | 9 µM |
| Cn1nc(C(F)(F)F)cc1OS(=O)(=O)c1cc(Cl)ccc1Cl [compound 3] | 2 µM |
| Cn1nc(C(F)(F)F)cc1OS(=O)(=O)c1cccc(Cl)c1 [compound 4] | 0.5 µM |
| Cn1nc(C(F)(F)F)cc1OS(=O)(=O)c1ccc(C(F)(F)F)cc1Cl [compound 5, 1-methyl-3-(trifluoromethyl)pyrazol-5-yl 2-chloro-4-(trifluoromethyl)benzenesulfonate] | 14 µM |
| Cn1nc(C(F)(F)F)cc1OS(=O)(=O)c1ccc(Br)c(Br)c1 [compound 6] | 12.5 µM |
| Cc1cc(S(=O)(=O)Oc2cc(C(F)(F)F)nn2C)ccc1Cl [compound 7] | 11 µM |
| Cn1nc(C(F)(F)F)cc1OS(=O)(=O)c1cccc(F)c1 [compound 8] | 0.16 µM |
| Cn1nc(C(F)(F)F)cc1OS(=O)(=O)c1c(F)cccc1F [compound 9] | 6 µM |
| Cn1nc(C(F)(F)F)cc1OS(=O)(=O)c1ccc(F)c(F)c1 [compound 10] | 1 µM |
| Cc1cc(F)ccc1S(=O)(=O)Oc1cc(C(F)(F)F)nn1C [compound 11] | 3.6 µM |
| Cn1nc(C(F)(F)F)cc1OS(=O)(=O)c1ccc(Cl)cc1Cl [compound 12, 1-methyl-3-(trifluoromethyl)pyrazol-5-yl 2,4-dichlorobenzenesulfonate] | 4.9 µM |
| Cn1nc(C(F)(F)F)cc1OS(=O)(=O)c1ccc2ccccc2c1 [compound 13] | 3 µM |
| O=S(=O)(Oc1cc(C(F)(F)F)nn1-c1ccccc1)c1ccc(F)c(Cl)c1 [compound 14] | 12 µM |
| Cc1c(Cl)cccc1S(=O)(=O)Oc1cc(C(F)(F)F)nn1C [compound 16] | 12 µM |
| Cn1nc(C(C)(C)C)cc1OS(=O)(=O)c1ccc(Cl)cc1Cl [compound 17] | 5.4 µM |
| Cc1nn(-c2ccccc2)c(OS(=O)(=O)c2ccc(F)cc2Cl)c1Cl [compound 18] | 1 µM |
| Cn1nc(C(C)(C)C)cc1OS(=O)(=O)c1ccc(F)cc1Cl [compound 19] | 1.3 µM |
| Cn1nc(C(F)(F)F)cc1OS(=O)(=O)c1ccc(F)cc1Cl [compound 20, 1-methyl-3-(trifluoromethyl)pyrazol-5-yl 2-chloro-4-fluorobenzenesulfonate] | 3.3 µM |
